# Source: patent US20250368687A1, “SHORT SYNTHETIC PEPTIDES AND USES THEREOF IN THE TREATMENT OF ENTEROVIRUS INFECTION” (CITY UNIVERSITY OF HONG KONG, priority 2024, published 2025)
# What was measured:
# EV-A71 IRES activity = test: Dual-luciferase IRES reporter assay in HEK 293T cells pre-treated with peptides; assay type: cell-based; conditions: 25 μM for 2 hours; for decrease of 2Apro-induced viral IRES activity: 24 h
# Protocol: FIGS. 10A-10K. Peptide S78 inhibited EV-A71 replication and propagation. (FIG. 10A) RD cells were pre-treated with peptides S78 or for 2 hours and infected with EV-A71 at the MOI of 10 for 6 hours. Cell lysates were collected for western blot assay. Hsp27 phosphorylation on Ser 15, 78, 82 were detected by specific antibodies. β-Actin were detected as internal control. (FIG. 10B) Densitometric analysis of FIG. 9A. (FIG. 10C) HEK 293T cells were pre-treated with peptides S78 or S78A at the concentration of 25 μM for 2 hours and then co-transfected with Hsp27-WT plasmid (800 ng), pIRES reporter plasmid (200 ng) and 2A^pro-expressing plasmid or 2AC110A-expressing plasmid (200 ng) for 24 h, then the luciferase activity was measured. (FIG. 10D-10E) RD cells were treated with peptides S78 or S78A and then infected with EV-A71. EV-A71 VP1 were detected. (FIG. 10F) RD cells were treated with peptides and then infected with EV-A71 at the MOI of 1 for 12 hours. The EV-A71-induced CPE was captured. (FIG. 10G-10H) Intracellular viral RNA was extracted and quantified by qPCR. (FIG. 10I) Densitometric analysis FIG. 9D-E. (FIG. 10J) RD cells were treated with peptides S78 or and then infected with EV-A71 at the MOI of 1 for 12 hours. Extracellular viral RNA was extracted and quantified by qPCR. (FIG. 10K) Viral titration was calculated by TCID50. The Statistical analyses were carried out using Student's t-test. *: p<0.05, **: p<0.01, ***: p<0.001. Data are expressed as mean ±SD.
# FIGS. 11A-11G Inhibition of EV-A71 Protein Translation and Viral Reproduction by peptide S82A. (FIG. 11A) HEK 293T cells were pre-treated with peptides NC, S78, S78A, S82A, or S78-3A at the concentration of 25 μM for 2 hours and then co-transfected with Hsp27-WT plasmid (800 ng), pIRES reporter plasmid (200 ng) and 2A^pro-expressing plasmid for 24 h, then the luciferase activity was measured. (FIG. 11B) RD cells were pre-treated with peptides NC at indicated concentrations for 2 hours and infected with EV-A71 at the MOI of 1 for 9 hours. Intracellular viral RNA was extracted and quantified by qPCR. […] EV-A71 VP1 were detected. β-Actin was detected as an internal control. (FIG. 11F) Densitometric analysis of the EV-A71 VP1 level in FIG. S7C-E was quantified and normalized with β-Actin using ImageJ. […] Viral titration was calculated. […] Data are expressed as mean ±SD.
# HEK 293T cells were seeded in 24-wells, and then co-transfected with plasmids to simultaneously express 2A^pro (200 ng), pIRES reporter (200 ng), and the wild-type Hsp27 or its mutants (800 ng). […] The Renilla luciferase (RLuc) and Firefly luciferase (FLuc) activity were determined by using a dual-luciferase reporter assay (Promega) according to the manufacturer's instructions in a Lumat LB9507 bioluminometer.
# [1] = system: Hsp27 and hnRNP A1 redistribution in RD cells; test: Immunofluorescence colocalization assay of Hsp27/hnRNP A1 redistribution, RD cells with or without EV-A71 infection; assay type: cell-based; conditions: for redistribution of Hsp27 and hnRNP A1 in EV-A71-infected RD cells / localization of Hsp27 and hnRNP A1 in mock RD cells: 25 μM for 2h; for redistribution of Hsp27 and hnRNP A1 in EV-A71-infected RD cells: EV-A71 MOI 40 for 6h; for localization of Hsp27 and hnRNP A1 in mock RD cells: without EV-A71; for fraction of Hsp27 overlapping DAPI (M1 colocalization coefficient): EV-A71-infected RD cells
# Protocol: The cells on coverslips were infected with EV-A71 at the multiplicity of infection (MOI) of 40 for 6 hrs to assure the high efficiency of viral infection. Then the cells were fixed by 4% paraformaldehyde for 20 min, permeabilized by 0.5% Triton X-100 for 15 min, blocked with 5% BSA for 2 hrs, and stained by incubation with anti-Hsp27 (GTX101145) and anti-hnRNP A1 (sc-32301) antibody, then with Alexa Fluor 488 conjugated anti-rabbit antibody and Alexa Fluor 594 conjugated anti-mouse antibody respectively. After washing four times with 0.2% Triton X-100, the nuclei were stained with DAPI or Hoechst for 5 min. The images were captured by a Nikon A1HD25 High speed and Large Field of View Confocal Microscope. Colocalization analysis was conducted using the JACoP-plugin of the extended ImageJ version Fiji. The M1 colocalization coefficient was computed to illustrate the colocalization levels of Hsp27 and hnRNP A1 overlapped with Hoechst.
# Hsp27 is predominantly located in the cytoplasm, however, stress (e.g., heat shock, virus infection) can induce partial redistribution of Hsp27 from the cytoplasm to the nucleus, concomitantly with its phosphorylation. We thus postulated that the cellular redistribution of Hsp27 may be associated with its phosphorylation upon EV-A71 infection. To verify the hypothesis, RD cells were with SB203580 at 0, 2, 4, and 8 μM for 2 h, and the cells were infected with EV-A71 for 6 h. […] The colocalization of Hsp27 and DAPI, which stands for the level of redistribution of Hsp27, was also quantified. The colocalization coefficient M1 was computed as the fraction of Hsp27 colocalized with DAPI in the total Hsp27 area using the JACoP-plugin in FIJI.
# We hypothesized that peptides S78 and S82A could interfere with Ser78 phosphorylation while peptides S78A (Ser78 replaced by Ala78) would not affect the phosphorylation of Ser78 of Hsp27. […] RD cells were pre-treated with peptide S78, S78A or S82A at the concentrations of 25 μM for 2h and then infected with or without EV-A71 at an MOI of 40 for 6h.
Compound,decrease of 2Apro-induced viral IRES activity (EV-A71 IRES activity),redistribution of Hsp27 and hnRNP A1 in EV-A71-infected RD cells [1],localization of Hsp27 and hnRNP A1 in mock RD cells [1],"fraction of Hsp27 overlapping DAPI (M1 colocalization coefficient) ([1]; 0, 2, 4, 8 μM)","nuclear Hsp27 level upon EV-A71 infection ([1]; 2 μM for 2 h, EV-A71 6 h, RD cells)","nuclear relocation of Hsp27 upon EV-A71 infection ([1]; 4 μM for 2 h, EV-A71 6 h, RD cells)",fraction of Hsp27 overlapping DAPI (M1 colocalization coefficient) ([1]; 8 μM),Hsp27 translocation to the nucleus without EV-A71 infection ([1]; RD cells without EV-A71 infection),effect on viral IRES activity (in words) (EV-A71 IRES activity; 24 h (FIG. 11A))
Ac-RKKRRQRRRAYSRALSRQLSS-NH2 [S78],34%,dramatically blocked,not affected,–,–,–,–,–,–
Ac-RKKRRQRRRAYSRALARQLSS-NH2 [S78A],about 10%,only partially reduced,not affected,–,–,–,–,–,–
"C[S+]([O-])c1ccc(-c2nc(-c3ccncc3)c(-c3ccc(F)cc3)[nH]2)cc1 (stereo not shown) [SB203580, reference compound]",–,–,–,reduced in a dose-dependent manner,markedly reduced,further blocked to an invisible level,reduced to the basal level,not translocated to the nucleus,–
"Ac-RKKRRQRRRYSREANQPKPSPKRESGEE-NH2 [NC, reference compound]",–,did not affect,–,–,–,–,–,–,did not affect
